Paper PMC11905058, “Novel Leech Antimicrobial Peptides, Hirunipins: Real‐Time 3D Monitoring of Antimicrobial and Antibiofilm Mechanisms Using Optical Diffraction Tomography” (Advanced Science, 2025)
No end group written: not given here.

How the values were obtained:
MDRAB (329-53) [1] = settings: for FICI: fractional inhibitory concentration index, FICA + FICB / Interpretation of FICI: antibiotic in combination with hirunipin 2; for MICA: MIC of antibiotic alone: checkerboard, MDRAB, 1×10^6 CFU/mL; for FICA: fractional inhibitory concentration of antibiotic ([A] / MICA) / [A]: MIC of antibiotic in combination: in combination with hirunipin 2
Description: Synergy testing by checkerboard assay: Briefly, each 96-well microtiter plate was inoculated with two-fold serial dilutions of two antibiotics, ranging from 1/8 MIC to 2 MIC, such that one antibiotic was inoculated in the columns and the other in the rows. Then, MDRAB (329-53) cells were inoculated at a concentration of 1× 10^6 CFU/mL. The plates were incubated overnight under static conditions and observed visually.

E. coli (KCTC 1682) = format: cell-based, Escherichia coli; settings: KCTC 1682, 24 h
Description: (§1) The salt sensitivity of the peptides was also analyzed. […] The MIC values in the physiological environment were determined as described above, and data were acquired from three independent assays performed in triplicate. Minimal Inhibitory Concentrations (MICs): Bacteria were grown to mid-logarithmic phase and diluted in Mueller-Hinton broth (MHB) (Difco). The bacterial suspension (1×10^6 CFU/well) was added to a 96-well microtiter plate along with a two-fold serial dilution of samples. The plate was incubated at 37 °C for 24 hours and the bacterial growth inhibition was assessed by measuring the optical density using an ELISA plate reader. The minimum inhibitory concentration (MIC) was defined as the lowest concentration of samples that prevented visible bacterial growth.

MDRAB (329-53) [2] = format: cell-based, Acinetobacter baumannii; settings: 24 h
Description: (§2) The MICs of the peptides were measured by the Clinical and Laboratory Standards Institute (CLSI) broth microdilution method, as outlined in a previous study.^[ [26], [27] ^]
(§3) Microbial Strains and Cell Lines: Multiple bacterial strains were used in this study. Standard stains included Escherichia coli (KCTC 1682), Pseudomonas aeruginosa (KCTC 1637), Staphylococcus aureus (KCTC1621) and Staphylococcus epidermidis (KCTC 1917) supplied from the Korean Collection for Type Cultures (KCTC) of the Korea Research Institute of Bioscience and Biotechnology (KRIBB). Clinically isolated multidrug-resistant bacteria included multidrug-resistant Klebsiella pneumonia (MDRKP 328-83), multidrug-resistant Acinetobacter baumannii (MDRAB 329-53), multidrug-resistant Pseudomonas aeruginosa (MDRPA 314-69), multidrug-resistant Enterobacter cloacae (MDRE 328-84) and multidrug-resistant Escherichia coli (MDREC 329-66) provided from Hospital of Chosun University, Korea. All bacterial strains were stored in 20% glycerol at −80 °C. For the subsequent experiments, the bacteria were recovered and cultured in the corresponding enrichment broth at 37 °C. The mouse macrophage RAW264.7, mouse fibroblast NIH-3T3 and human keratinocyte HaCat cells were cultured in Dulbecco’s modified Eagle’s medium (DMEM), supplemented with 10% (v/v) of fetal bovine serum (Sigma-Aldrich), 100 U/mL of penicillin and 0.1 mg/mL of streptomycin, at 37 °C in the presence of 5% CO2
(§4) Minimal Inhibitory Concentrations (MICs): Bacteria were grown to mid-logarithmic phase and diluted in Mueller-Hinton broth (MHB) (Difco). The bacterial suspension (1×10^6 CFU/well) was added to a 96-well microtiter plate along with a two-fold serial dilution of samples. The plate was incubated at 37 °C for 24 hours and the bacterial growth inhibition was assessed by measuring the optical density using an ELISA plate reader. The minimum inhibitory concentration (MIC) was defined as the lowest concentration of samples that prevented visible bacterial growth.

MDRKP (328-83) = format: cell-based, Klebsiella pneumonia; settings: 24 h
Description: as §2, §3, §4

MDRE (328-84) = format: cell-based, Enterobacter cloacae; settings: 24 h
Description: as §2, §3, §4

MDREC (329-66) = format: cell-based, Escherichia coli; settings: 24 h
Description: as §2, §3, §4

S. aureus (KCTC1621) = format: cell-based, Staphylococcus aureus; settings: KCTC1621, 24 h
Description: as §1

[3] = system: Pseudomonas aeruginosa [KCTC 1637]; format: cell-based; settings: KCTC 1637, 24 h
Description: as §2, §4

[4] = system: Staphylococcus epidermidis [KCTC 1917]; format: cell-based; settings: KCTC 1917, 24 h
Description: as §2, §4

[5] = system: Staphylococcus aureus [KCTC1621]; format: cell-based; settings: KCTC1621, 24 h
Description: as §2, §4

[6] = system: Escherichia coli [KCTC 1682]; format: cell-based; settings: KCTC 1682, 24 h
Description: as §2, §4

MDRPA (314-69) = format: cell-based, Pseudomonas aeruginosa; settings: 24 h
Description: as §2, §3, §4

## O=C(N[C@H](CO)[C@H](O)c1ccc([N+](=O)[O-])cc1)C(Cl)Cl [CHL, Chloramphenicol]
MDRAB (329-53) [1]
  FICI: fractional inhibitory concentration index, FICA + FICB: 0.1875
  Interpretation of FICI: synergy (FICI ≤ 0.5 was interpreted as synergy)
  MICA: MIC of antibiotic alone: 1024 µg/mL
  FICA: fractional inhibitory concentration of antibiotic ([A] / MICA): 0.125
  [A]: MIC of antibiotic in combination: 128 µg/mL

## O=C(O)c1cn(C2CC2)c2cc(N3CCNCC3)c(F)cc2c1=O [CIP, Ciprofloxacin]
MDRAB (329-53) [1]
  Interpretation of FICI: synergy (FICI ≤ 0.5 was interpreted as synergy)
  MICA: MIC of antibiotic alone: 128 µg/mL
  FICA: fractional inhibitory concentration of antibiotic ([A] / MICA): 0.25
  [A]: MIC of antibiotic in combination: 32 µg/mL

## CO[C@H]1/C=C/O[C@@]2(C)Oc3c(C)c(O)c4c(O)c(c(/C=N/N5CCN(C)CC5)c(O)c4c3C2=O)NC(=O)/C(C)=C\C=C\[C@H](C)[C@H](O)[C@@H](C)[C@@H](O)[C@@H](C)[C@H](OC(C)=O)[C@@H]1C [RIF, Rifampicin]
MDRAB (329-53) [1]
  FICI: fractional inhibitory concentration index, FICA + FICB: 0.3125
  Interpretation of FICI: synergy (FICI ≤ 0.5 was interpreted as synergy)
  MICA: MIC of antibiotic alone: 16 µg/mL
  FICA: fractional inhibitory concentration of antibiotic ([A] / MICA): 0.0625
  [A]: MIC of antibiotic in combination: 1 µg/mL

## LLKKLLRSLIKPAIMKIINTPPQEKLQK-NH2 [Hirunipin 1]
E. coli (KCTC 1682)
  MIC against E. coli (KCTC 1682), 4 µM FeCl3: 128 µg/mL
  MIC against E. coli (KCTC 1682), 6 µM NH4Cl: 128 µg/mL
  MIC against E. coli (KCTC 1682), 1 mM MgCl2: 256 µg/mL
  MIC against E. coli (KCTC 1682), 2.5 mM CaCl2: 256 µg/mL
  MIC against E. coli (KCTC 1682), 4.5 mM KCl: 256 µg/mL
  MIC against E. coli (KCTC 1682), 150 mM NaCl: 256 µg/mL
  MIC against E. coli (KCTC 1682), 25% Human serum: 128 µg/mL
  MIC against E. coli (KCTC 1682), Control: 64 µg/mL
MDRAB (329-53) [2]
  Minimum inhibitory concentrations, MDRAB (329-53): >128 µg/mL
MDRKP (328-83)
  Minimum inhibitory concentrations, MDRKP (328-83): >128 µg/mL
MDRE (328-84)
  Minimum inhibitory concentrations, MDRE (328-84): >128 µg/mL
MDREC (329-66)
  Minimum inhibitory concentrations, MDREC (329-66): 64 µg/mL
S. aureus (KCTC1621)
  MIC against S. aureus (KCTC1621), 4 µM FeCl3: 64 µg/mL
  MIC against S. aureus (KCTC1621), 6 µM NH4Cl: 256 µg/mL
  MIC against S. aureus (KCTC1621), 1 mM MgCl2: 256 µg/mL
  MIC against S. aureus (KCTC1621), 2.5 mM CaCl2: 256 µg/mL
  MIC against S. aureus (KCTC1621), 4.5 mM KCl: 256 µg/mL
  MIC against S. aureus (KCTC1621), 150 mM NaCl: 256 µg/mL
  MIC against S. aureus (KCTC1621), 25% Human serum: 256 µg/mL
  MIC against S. aureus (KCTC1621), Control: 64 µg/mL
[3]
  Minimum inhibitory concentration (MIC), Pseudomonas aeruginosa [KCTC 1637]: 32 µg/mL
[4]
  Minimum inhibitory concentration (MIC), Staphylococcus epidermidis [KCTC 1917]: 32 µg/mL
[5]
  Minimum inhibitory concentration (MIC), Staphylococcus aureus [KCTC1621]: 64 µg/mL
[6]
  Minimum inhibitory concentration (MIC), Escherichia coli [KCTC 1682]: 64 µg/mL
MDRPA (314-69)
  Minimum inhibitory concentrations, MDRPA (314-69): 64 µg/mL

## LSKGGFKGKPERAMAHHLKNIRKKLSKSIMKS [LP6]
[3]
  Minimum inhibitory concentration (MIC), Pseudomonas aeruginosa [KCTC 1637]: >128 µg/mL
[4]
  Minimum inhibitory concentration (MIC), Staphylococcus epidermidis [KCTC 1917]: >128 µg/mL
[5]
  Minimum inhibitory concentration (MIC), Staphylococcus aureus [KCTC1621]: >128 µg/mL
[6]
  Minimum inhibitory concentration (MIC), Escherichia coli [KCTC 1682]: >128 µg/mL

## MANPVNSIKRIIKKLKKERKCKPNL [LP18]
[3]
  Minimum inhibitory concentration (MIC), Pseudomonas aeruginosa [KCTC 1637]: >128 µg/mL
[4]
  Minimum inhibitory concentration (MIC), Staphylococcus epidermidis [KCTC 1917]: >128 µg/mL
[5]
  Minimum inhibitory concentration (MIC), Staphylococcus aureus [KCTC1621]: >128 µg/mL
[6]
  Minimum inhibitory concentration (MIC), Escherichia coli [KCTC 1682]: >128 µg/mL

## NITDYNKKKVRLLPRFIFPLG-NH2 [LP13]
[3]
  Minimum inhibitory concentration (MIC), Pseudomonas aeruginosa [KCTC 1637]: >128 µg/mL
[4]
  Minimum inhibitory concentration (MIC), Staphylococcus epidermidis [KCTC 1917]: >128 µg/mL
[5]
  Minimum inhibitory concentration (MIC), Staphylococcus aureus [KCTC1621]: >128 µg/mL
[6]
  Minimum inhibitory concentration (MIC), Escherichia coli [KCTC 1682]: >128 µg/mL

## PKKVRKSFKKLRNFSNKNSNIYGLPA [LP17]
[3]
  Minimum inhibitory concentration (MIC), Pseudomonas aeruginosa [KCTC 1637]: >128 µg/mL
[4]
  Minimum inhibitory concentration (MIC), Staphylococcus epidermidis [KCTC 1917]: >128 µg/mL
[5]
  Minimum inhibitory concentration (MIC), Staphylococcus aureus [KCTC1621]: >128 µg/mL
[6]
  Minimum inhibitory concentration (MIC), Escherichia coli [KCTC 1682]: >128 µg/mL

## QKFNGKSYALAKKMKKRQVKFLNRILDQL [LP19]
[3]
  Minimum inhibitory concentration (MIC), Pseudomonas aeruginosa [KCTC 1637]: >128 µg/mL
[4]
  Minimum inhibitory concentration (MIC), Staphylococcus epidermidis [KCTC 1917]: >128 µg/mL
[5]
  Minimum inhibitory concentration (MIC), Staphylococcus aureus [KCTC1621]: >128 µg/mL
[6]
  Minimum inhibitory concentration (MIC), Escherichia coli [KCTC 1682]: >128 µg/mL

## VLNVQSIMSWNKRVGGMILNLKT [LP11]
[3]
  Minimum inhibitory concentration (MIC), Pseudomonas aeruginosa [KCTC 1637]: >128 µg/mL
[4]
  Minimum inhibitory concentration (MIC), Staphylococcus epidermidis [KCTC 1917]: >128 µg/mL
[5]
  Minimum inhibitory concentration (MIC), Staphylococcus aureus [KCTC1621]: >128 µg/mL
[6]
  Minimum inhibitory concentration (MIC), Escherichia coli [KCTC 1682]: >128 µg/mL

## YFKIIKFLPKALKCLLPQKHKEHGNL-NH2 [Hirunipin 3]
E. coli (KCTC 1682)
  MIC against E. coli (KCTC 1682), 4 µM FeCl3: 32 µg/mL
  MIC against E. coli (KCTC 1682), 6 µM NH4Cl: 64 µg/mL
  MIC against E. coli (KCTC 1682), 1 mM MgCl2: 256 µg/mL
  MIC against E. coli (KCTC 1682), 2.5 mM CaCl2: 32 µg/mL
  MIC against E. coli (KCTC 1682), 4.5 mM KCl: 128 µg/mL
  MIC against E. coli (KCTC 1682), 150 mM NaCl: 128 µg/mL
  MIC against E. coli (KCTC 1682), 25% Human serum: 256 µg/mL
  MIC against E. coli (KCTC 1682), Control: 128 µg/mL
MDRAB (329-53) [2]
  Minimum inhibitory concentrations, MDRAB (329-53): >128 µg/mL
MDRKP (328-83)
  Minimum inhibitory concentrations, MDRKP (328-83): >128 µg/mL
MDRE (328-84)
  Minimum inhibitory concentrations, MDRE (328-84): >128 µg/mL
MDREC (329-66)
  Minimum inhibitory concentrations, MDREC (329-66): 128 µg/mL
S. aureus (KCTC1621)
  MIC against S. aureus (KCTC1621), 4 µM FeCl3: >256 µg/mL
  MIC against S. aureus (KCTC1621), 6 µM NH4Cl: 256 µg/mL
  MIC against S. aureus (KCTC1621), 1 mM MgCl2: 256 µg/mL
  MIC against S. aureus (KCTC1621), 2.5 mM CaCl2: 256 µg/mL
  MIC against S. aureus (KCTC1621), 4.5 mM KCl: 256 µg/mL
  MIC against S. aureus (KCTC1621), 150 mM NaCl: 256 µg/mL
  MIC against S. aureus (KCTC1621), 25% Human serum: >256 µg/mL
  MIC against S. aureus (KCTC1621), Control: 128 µg/mL
[3]
  Minimum inhibitory concentration (MIC), Pseudomonas aeruginosa [KCTC 1637]: 128 µg/mL
[4]
  Minimum inhibitory concentration (MIC), Staphylococcus epidermidis [KCTC 1917]: 64 µg/mL
[5]
  Minimum inhibitory concentration (MIC), Staphylococcus aureus [KCTC1621]: 128 µg/mL
[6]
  Minimum inhibitory concentration (MIC), Escherichia coli [KCTC 1682]: 128 µg/mL
MDRPA (314-69)
  Minimum inhibitory concentrations, MDRPA (314-69): >128 µg/mL
